Results: patent US12162879B2, “Pyridopyrimidine derivative, preparation method therefor and medical use thereof” (Jiangsu Hengrui Medicine Co., Ltd., priority 2018, dated 2024)

Columns and labels:
Assay type in all cases: cell-based
human TLR8 = human TLR8 (Homo sapiens (Human), UniProt Q9NR97); assay: Agonist activity on human TLR8 in HEK-Blue hTLR8 stably transfected cells; conditions: 16 hours, OD 620 nm
Experimental: The agonist effect of the compounds of the present invention on hTLR8 expressed by the HEK-Blue™ hTLR8 stably transfected cells was determined by the following experimental method.
(§1) • 1. DMEM(Gibco, 10564-029); • 2. Fetal bovine serum (GIBCO, 10099); • 3. Trypan blue solution (Sigma, T8154-100 ML); • 4. Flexstation 3 multi-function microplate reader (Molecular Devices); • 5. HEK-Blue™ hTLR8 cell line (InvivoGen, hkb-hTLR8), or HEK-Blue™ hTLR7 cell line (InvivoGen, hkb-hTLR7); • 6. HEK-Blue detection reagent (InvivoGen, hb-det3); and • 7. Phosphate buffer solution (PBS) pH 7.4 (Shanghai Basalmedia Technologies Co., Ltd., B320). II. Experimental Procedures a. Determination of Agonist Activity on Human TLR8
(§2) A bag of HEK-Blue detection dry powder was dissolved in 50 ml of water free of endotoxin, and the solution was then placed in an incubator at 37° C. for 10 minutes followed by sterile filtration to prepare a HEK-Blue detection medium. The compound was firstly formulated into a 20 mM stock solution, then diluted with pure DMSO to a maximum concentration of 6×10^6 nM, and a total of 10 points were obtained by a 3-fold gradient dilution. The above formulated compound was firstly diluted 20-fold with the medium, then 20 μl of the diluted compound was added to each well.
(§3) The supernate was removed from the HEK-Blue™ hTLR8 cells, to which 2-5 ml of pre-warmed PBS was then added. The cells were placed in an incubator for 1-2 minutes, gently pipetted, and counted by trypan blue staining. The cells were re-suspended in the HEK-Blue detection medium to adjust the concentration to 2.2×10^5 cells/ml. 180 μl of cells was added to the above 96-well plate comprising 20 μl of the compound, and incubated at 37° C. for 16 hours.
(§4) The corresponding OD values were obtained by a microplate reader at a wavelength of 620 nm, and the EC50 values of the compounds were calculated by Graphpad Prism.

[1] = system: peripheral blood mononuclear cells (PBMC); assay: Stimulation of IL12 secretion from PBMC (ELISA); conditions: minimum effective concentration, human PBMC, 24 hours
Experimental: (§5) The stimulating effect of the compounds of the present invention on the ability of secretion of IL12 and IFN γ from PBMC was determined by the following experimental method.
(§6) • 1. RMPI 1640 (Invitrogen, 11875); • 2. FBS (Gibco, 10099-141); • 3. Ficoll-Paque PREMIUM (GE, 17-5442-02); • 4. Trypan blue solution (Sigma, T8154-100 ML); • 5. SepMate™-50 (Stemcell, 15460); • 6. Bright-LineIM blood cell counter (Sigma, Z359629-1EA); • 7. 96-well cell culture plate (Corning, 3599); • 8. 96-well v-bottom plate (Corning, 3894); • 9. Human IL-12 ELISA kit (Neobioscience Technology Co., EHC152.96); • 10. Human IFN γ kit (cisbio, 62HIFNGPEG); and • 11. PHERAStar multi-function microplate reader (BMG, PHERAStar). II. Experimental Procedures
(§7) The compound was diluted with pure DMSO to a maximum concentration of 5 mM, and a total of 9 points were obtained by a 4-fold gradient dilution. 4 μl of the compound solution was then added to 196 μl of RMPI 1640 medium containing 10% FBS and mixed well. 50 μl of the mixture was taken and added to a 96-well cell culture plate.
(§8) All reagents were equilibrated to room temperature. 60 ml of blood from a healthy human and the same volume of PBS (containing 2% FBS) were added to a 250 ml culture flask, gently pipetted, mixed well and diluted. 15 ml of lymphocyte separation solution Ficoll-Paque PREMIUM was added to a 50 ml PBMC centrifuge tube SepMate™-50, followed by the addition of 30 ml of the above diluted blood. The mixture was centrifuged at 1200 g for 10 minutes at room temperature. The supernatant was taken and then centrifuged at 300 g for 8 minutes. The cells were re-suspended in the RMPI 1640 medium containing 10% FBS and counted, and the number of PBMCs was adjusted to 3.33×10^6 cells/ml. 150 μl of the cell solution was added to the plate containing the compounds, and incubated in an incubator at 37° C., 5.0% CO2 for 24 hours. The cell culture plate was placed in a centrifuge, and centrifuged at 1200 rpm for 10 minutes at room temperature. 150 μl of the supernatant was taken from each well.
The reagents in the Human IL-12 ELISA kit were equilibrated to room temperature. According to the kit's instruction, the highest concentration of the standard is 2000 pg/ml, and a total of 8 points were obtained by a 2-fold gradient dilution. The sample to be tested was diluted 20 folds. The solution was then added to a pre-coated plate at 100 μl/well. The plate was incubated at 37° C. for 90 minutes and rinsed. The […] was added at 100 μl/well, and the plate was incubated at 37° C. for 60 minutes and rinsed. HRP binding enzyme was added at 100 μl/well, and the plate was incubated at 37° C. for 30 minutes and rinsed. TMB was added, and the plate was incubated at room temperature for 5 minutes. Finally, the stop solution was added to stop the reaction, and the absorbance at 450 nm was read by the microplate reader.
(§9) The concentration of the compound that can stimulate PBMC to produce […] that is 3 times higher than the average value of the group without the compound (SD of the group without the compound) was defined as the minimum effective concentration (MEC) value of the compound.

[2] = system: peripheral blood mononuclear cells (PBMC); assay: Stimulation of IFNγ secretion from PBMC; conditions: minimum effective concentration, human PBMC, 24 hours
Experimental: as §5, §6, §7, §8
The reagents in the Human IFN γ test kit were equilibrated to room temperature. The standard and detection antibody were prepared according to the kit's instruction under dark conditions. 16 μl of the supernatant obtained by centrifugation was added to each well, and 4 μl of freshly prepared mixed detection antibody was added to each well. The solution was mixed well by shaking, and incubated overnight in the dark at room temperature. The plate was read by the PHERAStar multi-function microplate reader.
as §9

human TLR7 = human TLR7 (Homo sapiens (Human), UniProt Q9NYK1); assay: Agonist activity on human TLR7 in HEK-Blue hTLR7 cells; conditions: 16 hours, OD 620 nm
Experimental: as §1, §2
as §3, with “hTLR7” for “hTLR8”
as §4

human TLR8, sequence (Q9NR97 27-1041): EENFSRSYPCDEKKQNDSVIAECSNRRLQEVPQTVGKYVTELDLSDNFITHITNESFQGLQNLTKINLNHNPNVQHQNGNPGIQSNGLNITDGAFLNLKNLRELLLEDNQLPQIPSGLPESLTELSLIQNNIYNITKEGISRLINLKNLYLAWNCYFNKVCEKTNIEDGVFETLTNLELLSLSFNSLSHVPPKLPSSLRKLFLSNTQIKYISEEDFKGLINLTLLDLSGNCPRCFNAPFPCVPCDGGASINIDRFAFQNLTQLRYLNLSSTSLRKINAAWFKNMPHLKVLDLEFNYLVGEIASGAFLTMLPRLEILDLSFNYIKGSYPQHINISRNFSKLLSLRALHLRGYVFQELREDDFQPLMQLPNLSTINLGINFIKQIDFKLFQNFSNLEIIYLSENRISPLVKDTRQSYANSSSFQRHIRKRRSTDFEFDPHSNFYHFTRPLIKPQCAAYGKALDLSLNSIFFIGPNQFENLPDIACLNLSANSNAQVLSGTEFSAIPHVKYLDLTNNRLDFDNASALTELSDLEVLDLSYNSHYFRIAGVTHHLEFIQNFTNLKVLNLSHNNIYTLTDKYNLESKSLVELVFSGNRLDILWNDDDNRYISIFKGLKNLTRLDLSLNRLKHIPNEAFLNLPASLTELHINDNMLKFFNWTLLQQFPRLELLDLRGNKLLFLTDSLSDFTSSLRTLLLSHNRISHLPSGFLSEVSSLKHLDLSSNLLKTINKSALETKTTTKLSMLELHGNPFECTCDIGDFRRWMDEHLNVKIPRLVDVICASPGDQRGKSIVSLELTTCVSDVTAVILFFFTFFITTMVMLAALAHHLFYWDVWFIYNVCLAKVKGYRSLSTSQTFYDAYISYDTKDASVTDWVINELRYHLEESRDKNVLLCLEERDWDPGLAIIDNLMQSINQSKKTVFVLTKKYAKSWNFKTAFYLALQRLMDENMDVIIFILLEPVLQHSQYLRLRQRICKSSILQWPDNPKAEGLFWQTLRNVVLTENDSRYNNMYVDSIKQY
human TLR7, sequence (Q9NYK1 27-1049): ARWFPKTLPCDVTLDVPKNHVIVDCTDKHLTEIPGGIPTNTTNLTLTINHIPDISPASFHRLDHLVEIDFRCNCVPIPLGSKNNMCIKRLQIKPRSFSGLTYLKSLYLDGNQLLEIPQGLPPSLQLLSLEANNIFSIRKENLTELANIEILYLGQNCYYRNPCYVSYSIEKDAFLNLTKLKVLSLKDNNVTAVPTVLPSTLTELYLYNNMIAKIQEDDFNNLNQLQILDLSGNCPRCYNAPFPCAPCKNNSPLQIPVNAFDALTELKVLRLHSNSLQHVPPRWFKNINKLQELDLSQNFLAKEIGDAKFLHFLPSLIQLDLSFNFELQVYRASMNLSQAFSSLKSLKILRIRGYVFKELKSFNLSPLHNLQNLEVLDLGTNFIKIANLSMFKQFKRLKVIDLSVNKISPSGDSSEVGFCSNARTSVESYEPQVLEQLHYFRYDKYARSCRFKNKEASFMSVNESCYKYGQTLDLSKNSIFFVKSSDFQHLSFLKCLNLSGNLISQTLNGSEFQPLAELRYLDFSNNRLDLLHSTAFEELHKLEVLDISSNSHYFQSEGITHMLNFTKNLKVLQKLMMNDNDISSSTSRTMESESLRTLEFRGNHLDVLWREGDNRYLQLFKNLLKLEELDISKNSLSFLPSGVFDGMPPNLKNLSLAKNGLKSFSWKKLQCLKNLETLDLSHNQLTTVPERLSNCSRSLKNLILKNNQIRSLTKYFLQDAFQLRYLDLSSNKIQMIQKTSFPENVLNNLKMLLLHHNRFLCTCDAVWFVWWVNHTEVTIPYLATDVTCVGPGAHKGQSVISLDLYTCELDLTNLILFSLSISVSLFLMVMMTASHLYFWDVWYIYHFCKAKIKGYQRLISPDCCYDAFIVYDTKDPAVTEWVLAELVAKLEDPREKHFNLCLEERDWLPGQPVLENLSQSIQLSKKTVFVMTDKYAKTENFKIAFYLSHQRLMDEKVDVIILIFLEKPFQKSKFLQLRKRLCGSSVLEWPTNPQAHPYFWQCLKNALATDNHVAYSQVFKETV

| Compound | EC50 (human TLR8) [nM] | Emax (human TLR8) [%] | IL12 MEC [1] [nM] | IFNγ MEC [2] [nM] | EC50 (human TLR7) [nM] | Emax (human TLR7) [%] |
| --- | --- | --- | --- | --- | --- | --- |
| CCCCC(C)(CO)Nc1nc(N)nc2cc(-c3ccc(CN4CCCC4)nc3)cnc12 (centres unmarked) [Example 1, 2-((2-Amino-7-(6-(pyrrolidin-1-ylmethyl)pyridin-3-yl)pyrido[3,2-d]pyrimidin-4-yl)amino)-2-methylhexan-1-ol] | 130 | 97 |  |  |  |  |
| CCCCC(C)(CO)Nc1nc(N)nc2cc(-c3ccc(C4CCN(C)CC4)nc3)cnc12 (centres unmarked) [Example 3, 2-((2-Amino-7-(6-(1-methylpiperidin-4-yl)pyridin-3-yl)pyrido[3,2-d]pyrimidin-4-yl)amino)-2-methylhexan-1-ol] | 100 | 104 | 15 | 27 |  |  |
| CCCC[C@](C)(CO)Nc1nc(N)nc2cc(-c3cnc(CN4CCN(C)CC4)nc3)cnc12 [Example 7, (R)-2-((2-Amino-7-(2-((4-methylpiperazin-1-yl)methyl)pyrimidin-5-yl)pyrido[3,2-d]pyrimidin-4-yl)amino)-2-methylhexan-1-ol] | 80 | 116 |  |  |  |  |
| CCCCC(C)(CO)Nc1nc(N)nc2cc(-c3ccc(CN4CCNCC4)nc3)cnc12 (centres unmarked) [Example 9, 2-((2-Amino-7-(6-(piperazin-1-ylmethyl)pyridin-3-yl)pyrido[3,2-d]pyrimidin-4-yl)amino)-2-methylhexan-1-ol] | 150 | 103 | 24 | 94 | > 30000 | 5 |
